Like-named read-outs stand apart in the source and are kept apart here.
Test system: 1b_Huh-Luc/Neo-ET cell line (bicistronic genotype 1b replicon in Huh 7 cells)
Assay: HCV 1b replicon assay, luciferase readout
Type: cell-based, HCV genotype 1b
Method: Biological activity of the compounds of the invention was determined using an HCV replicon assay. The 1b_Huh-Luc/Neo-ET cell line persistently expressing a bicistronic genotype 1b replicon in Huh 7 cells was obtained from ReBLikon GMBH. This cell line was used to test compound inhibition using luciferase enzyme activity readout as a measurement of compound inhibition of replicon levels.
On Day 1 (the day after plating), each compound is added in triplicate to the cells. Plates incubated for 72 […] prior to running the luciferase assay. Enzyme activity was measured using a Bright-Glo Kit (cat. number E2620) manufactured by Promega Corporation. The following equation was used to generate a percent control value for each compound.
%Control=(Average Compound Value/Average Control)*100
The EC50 value was determined using GraphPad Prism and the following equation:
Y=Bottom+(Top−Bottom)/(1+10̂((LogIC50−X)*HillSlope))
EC50 values of compounds are repeated several times in the replicon assay.

[1] = Hepatitis C virus, Huh-7, 1b_Huh-Luc/Neo-ET cell line, read-out: EC50, half-maximal inhibition of HCV 1b replication
[2] = Hepatitis C virus, Huh-7, class symbol, HCV genotype 1b replicon, read-out: Inhibition of HCV genotype 1b replicon

SMILES	EC50 [1]	EC50 [2]	EC50 (class symbol, HCV genotype 1b replicon, read-out: Inhibition of HCV genotype 1b replicon)	EC50 (Hepatitis C virus, Huh-7, read-out: Inhibition of HCV genotype 1b replicon, class symbol, HCV genotype 1b replicon)
CNC(=O)c1c(-c2ccc(F)cc2)oc2cc3c(cc12)C(C)N(c1ccc(F)cc1)CCN3S(C)(=O)=O (stereo not shown) [Compound B165]	0.01 to 0.1 µM	0.01 to 0.1 µM	–	–
CNC(=O)c1c(-c2ccc(Oc3ccc(F)cc3)cc2)oc2cc3c(cc12)C(C)OC(C)(C)CN3S(C)(=O)=O (stereo not shown) [Compound B167]	0.01 to 0.1 µM	0.01 to 0.1 µM	–	–
CNC(=O)c1c(-c2ccc(F)cc2)oc2cc3c(cc12)C(C)N(C1CC1)CCN3S(C)(=O)=O (stereo not shown) [Compound B124]	0.01 to 0.1 µM	0.01 to 0.1 µM	–	–
CNC(=O)c1c(-c2ccc(F)cc2)oc2cc3c(cc12)C(C)N(C(=O)c1ccc(F)cc1)CCN3S(C)(=O)=O (stereo not shown) [Compound B134]	0.01 to 0.1 µM	0.01 to 0.1 µM	–	–
CNC(=O)c1c(-c2ccc(Oc3ccc(F)cc3)cc2)oc2cc3c(cc12)[C@H](C)O[C@H](CS(C)(=O)=O)CN3S(C)(=O)=O [Compound B216]	0.01 to 0.1 µM	–	0.01 to 0.1 µM	–
CNC(=O)c1c(-c2ccc(F)cc2)oc2cc3c(cc12)C(O)C(C)(C)CCN3S(C)(=O)=O (stereo not shown) [Compound B123]	0.01 to 0.1 µM	0.01 to 0.1 µM	–	–
CNC(=O)c1c(-c2ccc(F)cc2)oc2cc3c(cc12)C1CC1CCN3S(C)(=O)=O (stereo not shown) [Compound B127]	≤ 0.01 µM	< 0.01 µM	–	–
CNC(=O)c1c(-c2ccc(F)cc2)oc2cc3c(cc12)C(C)OC(C(=O)NC)CN3S(C)(=O)=O (stereo not shown) [Compound B229]	0.01 to 0.1 µM	0.01 to 0.1 µM	–	–
CNC(=O)c1c(-c2ccc(F)cc2)nc2cc3c(cn12)C(C)=CCCO3 [Compound B30]	–	> 1 µM	–	–
CNC(=O)c1c(-c2ccc(Oc3ccc(F)cc3)cc2)oc2cc3c(cc12)C(C)OC(C)CN3S(C)(=O)=O (stereo not shown) [Compound B168]	≤ 0.01 µM	< 0.01 µM	–	–
CNC(=O)c1c(-c2ccc(F)cc2)oc2cc3c(cc12)CCc1ccccc1CN3S(C)(=O)=O [Compound B200]	0.01 to 0.1 µM	0.01 to 0.1 µM	–	–
CNC(=O)c1c(-c2ccc(F)cc2)oc2cc3c(cc12)C(C)N(CC(F)F)CCN3S(C)(=O)=O (stereo not shown) [Compound B139]	≤ 0.01 µM	< 0.01 µM	–	–
CNC(=O)c1c(-c2ccc(F)cc2)oc2cc3c(cc12)[C@@H](C)c1ccccc1CN3S(C)(=O)=O (single isomer, unassigned) [Compound B204]	0.01 to 0.1 µM	0.01 to 0.1 µM	–	–
CNC(=O)c1c(-c2ccc(F)cc2)oc2cc3c(cc12)C(C)NC(=O)CN3S(C)(=O)=O (stereo not shown) [Compound B173]	0.01 to 0.1 µM	0.01 to 0.1 µM	–	–
CNC(=O)c1c(-c2ccc(Oc3ccc(F)cc3)cc2)oc2cc3c(cc12)[C@H](C)O[C@H](COC(=O)CN(C)C)CN3S(C)(=O)=O [Compound B239]	≤ 0.01 µM	< 0.01 µM	–	–
CNC(=O)c1c(-c2ccc(F)cc2)oc2cc3c(cc12)C(C)N(CC(F)(F)F)CCN3S(C)(=O)=O (stereo not shown) [Compound B107]	≤ 0.01 µM	< 0.01 µM	–	–
CNC(=O)c1c(-c2ccc(Oc3ccc(F)cc3)cc2)oc2cc3c(cc12)C(C)N(C)C(=O)CN3S(C)(=O)=O (stereo not shown) [Compound B174]	0.01 to 0.1 µM	0.01 to 0.1 µM	–	–
CNC(=O)c1c(-c2ccc(F)cc2)oc2cc3c(cc12)[C@@H](C)O[C@@H](CS(C)(=O)=O)CN3S(C)(=O)=O [Compound B213]	–	> 1 µM	–	–
CNC(=O)c1c(-c2ccc(F)cc2)oc2cc3c(cc12)C(C)N(CCF)CCN3S(C)(=O)=O (stereo not shown) [Compound B147]	0.01 to 0.1 µM	0.01 to 0.1 µM	–	–
CNC(=O)c1c(-c2ccc(F)cc2)oc2cc3c(cc12)[C@@H](C)O[C@@H](CO)CN3S(C)(=O)=O [Compound B211]	–	> 1 µM	–	–
CNC(=O)c1c(-c2ccc(F)cc2)oc2cc3c(cc12)[C@H](C)O[C@H](CCS(C)(=O)=O)CN3S(C)(=O)=O [Compound B233]	≤ 0.01 µM	< 0.01 µM	–	–
CNC(=O)c1c(-c2ccc(F)cc2)oc2cc3c(cc12)[C@@H](C)OC1(CC1)CN3S(C)(=O)=O (single isomer, unassigned) [Compound B194]	–	0.1 to 1 µM	–	–
CNC(=O)c1c(-c2ccc(F)cc2)oc2cc3c(cc12)C(C)N(CC(=O)O)CCN3S(C)(=O)=O (stereo not shown) [Compound B149]	–	> 1 µM	–	–
CNC(=O)c1c(-c2ccc(F)cc2)oc2cc3c(cc12)CCCCCN3S(C)(=O)=O [Compound B20]	≤ 0.01 µM	< 0.01 µM	–	–
CNC(=O)c1c(-c2ccc(Oc3ccc(F)cc3)cc2)oc2cc3c(cc12)[C@@H](C)n1nncc1CN3S(C)(=O)=O (single isomer, unassigned) [Compound B164]	0.01 to 0.1 µM	0.01 to 0.1 µM	–	–
CNC(=O)c1c(-c2ccc(F)cc2)oc2cc3c(cc12)CCCCCCN3S(C)(=O)=O [Compound B19]	0.01 to 0.1 µM	0.01 to 0.1 µM	–	–
CNC(=O)c1c(-c2ccc(Oc3ccc(F)cc3)cc2)oc2cc3c(cc12)CCCCN3S(C)(=O)=O [Compound B136]	0.01 to 0.1 µM	0.01 to 0.1 µM	–	–

SMILES	EC50 [1]	EC50 [2]	EC50 (class symbol, HCV genotype 1b replicon, read-out: Inhibition of HCV genotype 1b replicon)	EC50 (Hepatitis C virus, Huh-7, read-out: Inhibition of HCV genotype 1b replicon, class symbol, HCV genotype 1b replicon)
CNC(=O)c1c(-c2ccc(Br)cc2)nn2cc3c(cc12)C(C)CCCN3S(C)(=O)=O (stereo not shown) [Compound B89]	–	0.01 to 0.1 µM	–	–
CNC(=O)c1c(-c2ccc(F)cc2)oc2cc3c(cc12)[C@@H](C)OC(C)(C)CN3S(C)(=O)=O (single isomer, unassigned) [Compound B185]	–	> 1 µM	–	–
C=C1CCCN(S(C)(=O)=O)c2cc3oc(-c4ccc(F)cc4OC)c(C(=O)NC)c3cc21 [Compound B83]	–	> 1 µM	–	–
CC1CCCN(S(C)(=O)=O)c2cc3oc(-c4ccc(Oc5ccc(F)cc5)cc4)c(-c4ncc[nH]4)c3cc21 (stereo not shown) [Compound B198]	≤ 0.01 µM	< 0.01 µM	–	–
CNC(=O)c1c(-c2ccc(Oc3ccc(F)cc3)cc2)oc2cc3c(cc12)[C@@H](C)OC1(CC1)CN3S(C)(=O)=O (single isomer, unassigned) [Compound B186]	0.01 to 0.1 µM	0.01 to 0.1 µM	–	–
CNC(=O)c1c(-c2ccc(F)cc2)oc2cc3c(cc12)C(O)CCCCN3S(C)(=O)=O (stereo not shown) [Compound B88]	–	0.1 to 1 µM	–	–
CNC(=O)c1c(-c2ccc(F)cc2)oc2cc3c(cc12)C1(CCN3S(C)(=O)=O)CC1 [Compound B2]	0.01 to 0.1 µM	0.01 to 0.1 µM	–	–
CNC(=O)c1c(-c2ccc(F)cc2)oc2cc3c(cc12)C(C)OC(C(=O)N1CCCC1)CN3S(C)(=O)=O (stereo not shown) [Compound B227]	0.01 to 0.1 µM	0.01 to 0.1 µM	–	–
CNC(=O)c1c(-c2ccc(Oc3ccc(F)c(F)c3)cc2)nn2cc3c(cc12)C(C)CCCN3S(C)(=O)=O (stereo not shown) [B97 (3)]	–	–	–	0.01 to 0.1 µM
CNC(=O)c1c(-c2ccc(Oc3ccccc3Cl)cc2)nn2cc3c(cc12)C(C)CCCN3S(C)(=O)=O (stereo not shown) [Compound B91]	–	0.1 to 1 µM	–	–
CNC(=O)c1c(-c2ccc(F)cc2)oc2cc3c(cc12)C(C)OC(CN(C)C)CN3S(C)(=O)=O (stereo not shown) [Compound B222]	0.01 to 0.1 µM	0.01 to 0.1 µM	–	–
CC1OCCN(S(C)(=O)=O)c2cc3oc(-c4ccc(Oc5ccc(F)cc5)cc4)c(-c4ncc[nH]4)c3cc21 (stereo not shown) [Compound B202]	0.01 to 0.1 µM	0.01 to 0.1 µM	–	–
CNC(=O)c1c(-c2ccc(F)cc2)oc2cc3[nH]ccc3cc12 [Compound B25]	–	> 1 µM	–	–
CNC(=O)c1c(-c2ccc(Oc3ccc(F)cc3)cc2)oc2cc3c(cc12)C(C)OC1(CC1)CN3S(C)(=O)=O (stereo not shown) [Compound B178]	0.01 to 0.1 µM	0.01 to 0.1 µM	–	–
CNC(=O)c1c(-c2ccc(F)cc2)oc2cc3c(cc12)C(C)OC(CNS(C)(=O)=O)CN3S(C)(=O)=O (stereo not shown) [Compound B220]	0.01 to 0.1 µM	0.01 to 0.1 µM	–	–
CNC(=O)c1c(-c2ccc(F)cc2)oc2cc3c(cc12)C(C)N([C@H](C)c1ccc(F)cc1)CCN3S(C)(=O)=O (stereo partly shown) [Compound B159]	0.01 to 0.1 µM	0.01 to 0.1 µM	–	–
CNC(=O)c1c(-c2ccc(F)cc2)oc2cc3c(cc12)C(C)OC(C(=O)N(C)C)CN3S(C)(=O)=O (stereo not shown) [Compound B223]	0.01 to 0.1 µM	0.01 to 0.1 µM	–	–
CNC(=O)c1c(-c2ccc(F)cc2F)oc2cc3c(cc12)C(=O)CCCN3S(C)(=O)=O [Compound B49]	–	0.1 to 1 µM	–	–
CNC(=O)c1c(-c2ccc(Oc3ccc(F)cc3)cc2)oc2cc3c(cc12)[C@H](C)O[C@H](COC(=O)[C@@H](N)C(C)C)CN3S(C)(=O)=O [Compound B237]	≤ 0.01 µM	< 0.01 µM	–	–
C=C1CCCN(S(C)(=O)=O)c2cc3oc(-c4ccc(Oc5ccc(F)cc5)cc4)c(C(=O)NC)c3cc21 [Compound B46]	–	0.1 to 1 µM	–	–
CNC(=O)c1c(-c2ccc(Oc3ccc(F)cc3)cc2)oc2cc3c(cc12)[C@@H](C)N(C)C(=O)CN3S(C)(=O)=O (single isomer, unassigned) [Compound B182]	–	0.1 to 1 µM	–	–
CNC(=O)c1c(-c2ccc(F)cc2)oc2cc3c(cc12)C(C)NCCN3S(C)(=O)=O (stereo not shown) [Compound B57]	0.01 to 0.1 µM	0.01 to 0.1 µM	–	–
CNC(=O)c1c(-c2ccc(F)cc2)oc2cc3c(cc12)[C@H](C)O[C@@H](CCS(C)(=O)=O)CN3S(C)(=O)=O [Compound B234]	0.01 to 0.1 µM	0.01 to 0.1 µM	–	–
CNC(=O)c1c(-c2ccc(F)cc2)oc2cc3c(cc12)C(C)OC(C)(C)CN3S(C)(=O)=O (stereo not shown) [Compound B183]	0.01 to 0.1 µM	0.01 to 0.1 µM	–	–
CNC(=O)c1c(-c2ccc(Oc3ccc(F)cc3)cc2)oc2cc3c(cc12)[C@H](C)O[C@@H](CS(C)(=O)=O)CN3S(C)(=O)=O [Compound B224]	0.01 to 0.1 µM	0.01 to 0.1 µM	–	–
CNC(=O)c1c(-c2ccc(F)cc2)oc2cc3c(cc12)C(C)OC(CS(C)(=O)=O)CN3S(C)(=O)=O (stereo not shown) [Compound B196]	≤ 0.01 µM	< 0.01 µM	–	–
